According to patent US20230116760A1, “STRUCTURALLY-STABILIZED ONCOLYTIC PEPTIDES AND USES THEREOF” (Dana-Farber Cancer Institute, Inc., priority 2019, published 2023):
Bridge positions count the residues as written; N and C are the ends. Square brackets hold non-standard residues; d marks the D form. Peptide text beside a SMILES is read from it. S5 = C=CCCC[C@](C)(N)C(=O)O; Nle = CCCC[C@H](N)C(=O)O

How the values were obtained:
[1] = tested on: leukemia cells (e.g. U937, OCI-AML3 and MV4;11 cells); type: cell-based; conditions: 24 h
Protocol: (§1) LDH release assay: To assess the release of lactate dehydrogenase (LDH) upon treatment with a structurally-stabilized peptide described herein, an LDH release assay can be used. Cultured cells, including, e.g., cancer cells and HUVEC cells, are plated in 96-well format (2×10^4 cells per well; including overnight incubation for adherent cells) and then treated with serial dilutions of structurally-stabilized peptides in a final volume in a final volume of 100 μL and incubated at 37° C. for the indicated time period (e.g., 90 minutes). The plates are spun down at 1500 rpm for 5 minutes at 4° C., and 80 μL of cell culture media is transferred to a clear plate (Corning), incubated with 80 μL of LDH reagent (Roche) for 15 minutes while shaking, and absorbance is measured at 490 nm on a microplate reader (SpectraMax M5 Microplate Reader, Molecular Devices). LDH release assays, as tailored to specific cancer cell types (OCI-AML3 cells and primary human pediatric B-ALL cells), are exemplified below.
LDH release assay: Cultured cells, including cancer cells and HUVEC cells, were plated in 96-well format (2×10^4 cells per well; including overnight incubation for adherent cells) and then treated with serial dilutions of Mag(i+4) peptides in a final volume in a final volume of […] and incubated at 37° C. for the indicated time period. […]

[2] = mice; Mourtada et al., Nature Biotech, 2019; cited from earlier work
red blood cells (RBCs) = type: cell-based, human
Protocol: RBC hemolysis assay: To assess the hemolytic activity of a structurally-stabilized peptide described herein, a red blood cell (RBV) hemolysis assay can be used. Human blood samples are centrifuged to isolate RBCs, which are then washed and suspended in phosphate-buffered saline to yield a 1% (v/v) suspension. The suspension is added to serial dilutions of peptide stocks in water in clear round-bottom polypropylene 96-well plates and the plates incubated for 1 hour at 37° C. The plates are then centrifuged and the supernatant isolated to determine the amount of hemoglobin released using a spectrophotometer (570 nm). Percent hemolysis is calculated as: ([Treated Absorbance−Untreated Control Absorbance]×100)/(1% Triton X-100 Treated Absorbance−Untreated Control Absorbance).
Stapled oncolytic peptide synthesis: Fmoc-based solid-phase peptide synthesis was used to synthesize stapled antimicrobial peptides in accordance with previously reported methods for generating all-hydrocarbon stapled peptides. To achieve the various staple lengths, α-methyl, α-alkenyl amino acids were installed at i, i+4 positions using two S-pentenyl alanine residues (S5). For the stapling reaction, Grubbs 1st generation ruthenium catalyst dissolved in dichloroethane was added to the resin-bound peptides. To ensure maximal conversion, three to five rounds of stapling were performed. The peptides were then cleaved off of the resin using trifluoroacetic acid, precipitated using a hexane:ether (1:1) mixture, air dried, and purified by LC-MS. All peptides were quantified by amino acid analysis. RBC hemolysis assay: Human blood samples were centrifuged to isolate red blood cells (RBCs), which were then washed and suspended in phosphate-buffered saline to yield a 1% (v/v) suspension. The suspension was added to serial dilutions of peptide stocks in water in clear round-bottom polypropylene 96-well plates and the plates incubated for 1 hour at 37° C. The plates were then centrifuged and the supernatant isolated to determine the amount of hemoglobin released using a spectrophotometer (570 nm). Percent hemolysis was calculated as: ([Treated Absorbance−Untreated Control Absorbance]×100)/(1% Triton X-100 Treated Absorbance−Untreated Control Absorbance).

B. cereus = assay: killing of B. cereus; type: cell-based; conditions: vs Mag(i+4)15
S. aureus = assay: killing of S. aureus; type: cell-based; conditions: vs Mag(i+4)15
OCI-AML3 cells = assay: LDH release assay of OCI-AML3 cells; type: cell-based, human; conditions: 10 and 25 μg/mL, 90 minutes, FIG. 6, FIG. 7
Protocol: as §1
(§2) LDH release assay of OCI-AML3 cells: OCI-AML3 cells are seeded in 96-well plates (2×10^4 cells per well) in RPMI medium containing 5% FBS and treated with structurally-stabilized peptides for 90 minutes. LDH release is quantified by incubating centrifuged (e.g., at 1500 rpm) cell culture medium 1:1 with LDH reagent (Roche), followed by absorbance measurement 490 nm on a microplate reader (Spectramax M5). Percent LDH release was normalized to 1% Triton.
(§3) LDH release assay: Cultured cells, including cancer cells and HUVEC cells, were plated in 96-well format (2×10^4 cells per well; including overnight incubation for adherent cells) and then treated with serial dilutions of Mag(i+4) peptides in a final volume in a final volume of […] and incubated at 37° C. for the indicated time period. The plates were spun down at 1500 rpm for 5 min at 4° C., and 80 μL of cell culture media was transferred to a clear plate (Corning), incubated with 80 μL of LDH reagent (Roche) for 15 min while shaking, and absorbance measured at 490 nm on a microplate reader (SpectraMax M5 Microplate Reader, Molecular Devices). LDH release assays, as tailored to specific cancer cell types, are exemplified below.
as §2, with “were” for “are”, “with” for “with structurally-stabilized”, “peptides having the indicated amino acid sequences” for “peptides”, “was” for “is”, “centrifuged” for “centrifuged (e.g., at 1500 rpm)”, “Triton. Data was pooled from 2 technical replicates.” for “Triton.”

U937 cells = assay: LDH release assay of U937 cells; type: cell-based; conditions: 10 and 25 μg/mL, 90 minutes, FIG. 6, FIG. 7
Protocol: as §1, §3

Molecule	RBC lysis (red blood cells (RBCs))	killing of B. cereus compared to the parent compound (B. cereus)	killing of S. aureus compared to the parent compound (S. aureus)	cancer cell lysis by LDH release, compared with parent Mag(i+4)15 (OCI-AML3 cells)	cancer cell lysis by LDH release, compared with parent Mag(i+4)15 (U937 cells)	other results
CC(C)[C@@H]1NC(=O)[C@@](C)(NC(=O)[C@H](C)NC(=O)[C@H](CCCCN)NC(=O)CNC(=O)[C@H](Cc2ccccc2)NC(=O)[C@H](CCCCN)NC(=O)[C@H](CCCCN)NC(=O)[C@H](CCCCN)NC(=O)[C@H](CO)NC(=O)[C@H](Cc2c[nH]cn2)NC(=O)[C@]2(C)CCCC=CCCC[C@](C)(NC(=O)CN)C(=O)NCC(=O)N[C@@H](CCCCN)C(=O)N[C@@H](Cc3ccccc3)C(=O)N2)CCCC=CCCC[C@@](C)(C(=O)N[C@@H](C)C(=O)N[C@@H](CCCCN)C(=O)N[C@@H](CCCCN)C(N)=O)NC(=O)[C@H](CCC(=O)O)NC(=O)CNC1=O [Mag(i+4)1,15 (A9K, B21A, N22K, S23K), GX1GKFX2HSKKKFGKAX3VGEX4AKK] (H-G[S5]GKF[S5]HSKKKFGKA[S5]VGE[S5]AKK-NH2; staple 2-6, 16-20)						EC50 of leukemia cell lysis (LDH release) [1]: 11.5 to 28.2 µg/mL; toxicity (gross toxicity, red cell hemolysis, kidney epithelium) [2]: without gross toxicity, red cell hemolysis or damage to kidney epithelium
CCCC[C@H](NC(=O)[C@@H](NC(=O)[C@H](CCC(=O)O)NC(=O)CNC(=O)[C@@H](NC(=O)[C@H](Cc1ccccc1)NC(=O)[C@H](C)NC(=O)[C@H](CCCCN)NC(=O)CNC(=O)[C@H](Cc1ccccc1)NC(=O)[C@]1(C)CCCC=CCCC[C@](C)(NC(=O)[C@H](CC(C)C)NC(=O)[C@H](Cc2ccccc2)NC(=O)[C@H](CCCCN)NC(=O)CNC(=O)[C@@H](NC(=O)CN)[C@@H](C)CC)C(=O)N[C@@H](CO)C(=O)N[C@@H](C)C(=O)N[C@@H](CCCCN)C(=O)N1)C(C)C)[C@@H](C)CC)C(=O)N[C@@H](CC(N)=O)C(=O)N[C@@H](CO)C(N)=O [Mag(i+4)6, GIGKFLX1SAKX2FGKAFVGEIBNS] (H-GIGKFL[S5]SAK[S5]FGKAFVGEI[Nle]NS-NH2; staple 7-11)	no effect on any cell type					
CCCC[C@@H]1NC(=O)[C@H]([C@@H](C)CC)NC(=O)[C@@](C)(NC(=O)CNC(=O)[C@@H](NC(=O)[C@H](Cc2ccccc2)NC(=O)[C@H](C)NC(=O)[C@H](CCCCN)NC(=O)CNC(=O)[C@H](Cc2ccccc2)NC(=O)[C@H](CCCCN)NC(=O)[C@H](CCCCN)NC(=O)[C@H](C)NC(=O)[C@H](CO)NC(=O)[C@H](Cc2c[nH]cn2)NC(=O)[C@H](CC(C)C)NC(=O)[C@H](Cc2ccccc2)NC(=O)[C@H](CCCCN)NC(=O)CNC(=O)[C@@H](NC(=O)CN)[C@@H](C)CC)C(C)C)CCCC=CCCC[C@@](C)(C(N)=O)NC(=O)[C@H](CC(N)=O)NC1=O [Mag(i+4)18, GIGKFLHSAKKFGKAFVGX1IBNX2] (H-GIGKFLHSAKKFGKAFVG[S5]I[Nle]N[S5]-NH2; staple 19-23)	lytic to all three cell types					
GKGKFLHSAKKFGKAX1VGEX2BNS [Mag(i+4)15 (I2K)]		substantially impaired	substantially impaired	retain substantial, if not all, oncolytic activity	retain substantial, if not all, oncolytic activity	
KIGKFLHSAKKFGKAX1VGEX2BNS [Mag(i+4)15 (G1K)]		substantially impaired	substantially impaired	retain substantial, if not all, oncolytic activity	retain substantial, if not all, oncolytic activity	
